In US12617773B2, “Azetidin-3-ylmethanol derivatives as CCR6 receptor modulators” (Idorsia Pharmaceuticals Ltd, priority 2020, dated 2026):

Target: T1, human CCR6 (Homo sapiens, UniProt P51684)
T1 construct: expressed in transfected cells; host or cells: HEK-293
T1 sequence (P51684 1-374): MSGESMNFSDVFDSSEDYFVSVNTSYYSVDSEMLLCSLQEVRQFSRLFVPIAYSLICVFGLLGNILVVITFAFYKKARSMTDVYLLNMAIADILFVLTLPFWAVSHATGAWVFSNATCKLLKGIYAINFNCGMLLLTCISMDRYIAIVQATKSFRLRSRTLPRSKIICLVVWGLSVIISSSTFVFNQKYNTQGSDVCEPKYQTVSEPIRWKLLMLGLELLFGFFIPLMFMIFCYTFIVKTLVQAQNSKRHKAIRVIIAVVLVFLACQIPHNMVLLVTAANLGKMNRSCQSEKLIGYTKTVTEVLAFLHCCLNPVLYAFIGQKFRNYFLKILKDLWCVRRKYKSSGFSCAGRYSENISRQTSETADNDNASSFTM
Assay: FLIPR assay (inhibition of CCL20-induced calcium signal)
Type: cell-based
Settings: HEK-293 cells expressing human CCR6; mean values where determined several times; read-out: FLIPR IC50
How it was run: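 IC50 values come from baseline-corrected peak calcium fluorescence after agonist. The agonist was CCL20 at 10 nM final, added to engineered human CCR6 HEK-293 cells following a 30-min, room-temperature, dark preincubation with serially diluted compound. Readings were taken in a fluorometric imaging plate reader.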

IC50	Structure (SMILES)
46.7 nM	CC(C)c1ccc([C@](O)(c2cncc(N3CCC(c4ccccc4)C3)c2)C2(C)CN(C)C2)cc1 (some centres unmarked) [Example 232]
135 nM	CC(C)c1ccc([C@](O)(c2cncc(N3CC(C(F)(F)F)CC3=O)c2)C2(C)CN(C)C2)cc1 (some centres unmarked) [Example 219]
452 nM	CN1CC(C)([C@@](O)(c2cncc(-c3noc(C(C)(C)O)n3)c2)c2ccc3sccc3c2)C1 [Example 541]
123 nM	CC(C)c1ccc([C@](O)(c2cncc(N3C[C@@H]4C[C@H]3CO4)c2)C2(C)CN(C)C2)cc1 [Example 234]
41.2 nM	CC(C)c1ccc([C@](O)(c2cncc(-c3noc(C(C)(F)F)n3)c2)C2(C)CN(C)C2)cc1 [Example 518, (R)-{5-[5-(1,1-Difluoro-ethyl)-[1,2,4]oxadiazol-3-yl]-pyridin-3-yl}-(1,3-dimethyl-azetidin-3-yl)-(4-isopropyl-phenyl)-methanol]
166 nM	CCc1cc([C@@](O)(c2ccc(C(C)C)cc2)C2(C)CN(C)C2)ccn1 [Example 279, (S)-(1,3-Dimethyl-azetidin-3-yl)-(2-ethyl-pyridin-4-yl)-(4-isopropyl-phenyl)-methanol]
20.8 nM	COc1ccc(C(C)(O)C#Cc2cncc([C@@](O)(c3ccc(C(C)C)cc3)C3(C)CN(C)C3)c2)cc1 (some centres unmarked) [Example 33]
22.8 nM	CN1CC(C)([C@](O)(c2ccc(C3(C)CC3)cc2)c2cncc(-c3noc(C(C)(C)O)n3)c2)C1 [Example 543]
250 nM	COCCOc1cncc(C(O)(c2ccc(C(C)C)cc2)C2(C)CN(C)C2)c1 (centres unmarked) [Example 247]
95.1 nM	CC(C)c1ccc([C@](O)(c2cncc(-c3noc(CC(C)(C)O)n3)c2)C2(C)CN(C(C)C)C2)cc1 [Example 337, 1-(3-{5-[(R)-Hydroxy-(1-isopropyl-3-methyl-azetidin-3-yl)-(4-isopropyl-phenyl)-methyl]-pyridin-3-yl}-[1,2,4]oxadiazol-5-yl)-2-methyl-propan-2-ol]
38 nM	CC(C)c1ccc([C@](O)(c2cncc(-c3noc(C4CCN(S(=O)(=O)C5CC5)CC4)n3)c2)C2(C)CN(C)C2)cc1 [Example 190, (R)-{5-[5-(1-Cyclopropanesulfonyl-piperidin-4-yl)-[1,2,4]oxadiazol-3-yl]-pyridin-3-yl}-(1,3-dimethyl-azetidin-3-yl)-(4-isopropyl-phenyl)-methanol]
52.4 nM	Cc1cccc(C(C)(O)C#Cc2cncc([C@@](O)(c3ccc(C(C)C)cc3)C3(C)CN(CCO)C3)c2)n1 (some centres unmarked) [Example 667]
32.7 nM	CC(C)c1ccc([C@](O)(c2cncc(-c3noc(C(C)C)n3)c2)C2(C)CN(C)C2)cc1 [Example 507]
39.7 nM	CC(C)c1ccc([C@](O)(c2cncc(-c3noc(C4CCN(C(=O)C5CCCC5)CC4)n3)c2)C2(C)CN(C)C2)cc1 [Example 375]
129 nM	Cc1cnc(C(C)(O)CCc2cncc([C@@](O)(c3ccc(C(C)C)cc3)C3(C)CN(C)C3)c2)cn1 (some centres unmarked) [Example 646]
24.8 nM	CC(C)c1ccc(C(O)(c2cncc(C3CCCC3)c2)C2(C)CN(C)C2)cc1 (centres unmarked) [Example 291]
95.2 nM	CC(C)c1ccc([C@](O)(c2cnnc(N3CC(C(F)(F)F)CC3=O)c2)C2(C)CN(C)C2)cc1 (some centres unmarked) [Example 437]
103 nM	CN1CC(C)(C(O)(c2ccc(OC(F)(F)F)cc2)c2cnc(C#N)c(N3CCCC3)c2)C1 (centres unmarked) [Example 267, 5-[(1,3-Dimethyl-azetidin-3-yl)-hydroxy-(4-trifluoromethoxy-phenyl)-methyl]-3-pyrrolidin-1-yl-pyridine-2-carbonitrile]
55.3 nM	COc1cc(C(C)(O)C#Cc2cncc([C@@](O)(c3ccc(C(C)C)cc3)C3(C)CN(C)C3)c2)ncn1 (single isomer, unassigned) [Example 620]
19.4 nM	CC(C)c1ccc([C@](O)(c2cncc(CCC(O)C(C)C)c2)C2(C)CN(C)C2)cc1 (some centres unmarked) [Example 61]
36.7 nM	CC(C)c1ccc([C@](O)(c2cncc(CCc3cc4cccnc4[nH]3)c2)C2(C)CN(C)C2)cc1 [Example 413, (R)-(1,3-Dimethyl-azetidin-3-yl)-(4-isopropyl-phenyl)-{5-[2-(1H-pyrrolo[2,3-b]pyridin-2-yl)-ethyl]-pyridin-3-yl}-methanol]
133 nM	CC(C)c1ccc([C@](O)(c2cncc(N3CC[C@H](CO)C3)c2)C2(C)CN(C)C2)cc1 [Example 170]
74.9 nM	CC(C)c1ccc([C@](O)(c2cncc(C#CC3(O)CCOc4cccnc43)c2)C2(C)CN(C)C2)cc1 (some centres unmarked) [Example 611]
100 nM	CC(C)c1ccc([C@](O)(c2cncc(-c3noc(C(C)(C)O)n3)c2)C2(C)CN(C(C)C)C2)cc1 [Example 339, 2-(3-{5-[(R)-Hydroxy-(1-isopropyl-3-methyl-azetidin-3-yl)-(4-isopropyl-phenyl)-methyl]-pyridin-3-yl}-[1,2,4]oxadiazol-5-yl)-propan-2-ol]
70.6 nM	CC(C)c1ccc([C@](O)(c2cncc(CC#CO)c2)C2(C)CN(C)C2)cc1 [Example 14, 3-{5-[(R)-(1,3-Dimethyl-azetidin-3-yl)-hydroxy-(4-isopropyl-phenyl)-methyl]-pyridin-3-yl}-prop-1-yn-1-ol]

IC50	Structure (SMILES)
175 nM	CC(C)c1ccc([C@](O)(c2cnnc(N3CC(C)(C)CC3=O)c2)C2(C)CN(C)C2)cc1 [Example 435]
28.2 nM	CNS(=O)(=O)N1CCC(c2nc(-c3cncc([C@@](O)(c4ccc(C(C)C)cc4)C4(C)CN(C)C4)c3)no2)CC1 [Example 388]
61.1 nM	COc1cc(C(C)(O)C#Cc2cncc([C@@](O)(c3ccc(C(C)C)cc3)C3(C)CN(C)C3)c2)nc(C)n1 (single isomer, unassigned) [Example 630]
122 nM	CN1CC(C)([C@](O)(c2ccc(C(C)(C)C)cc2)c2cncc(-c3noc(C(C)(C)O)n3)c2)C1 [Example 540]
281 nM	CC(C)c1ccc([C@](O)(c2cnnc(N3CC4OCCC4C3=O)c2)C2(C)CN(C)C2)cc1 (stereo partly drawn) [Example 681, 5-{5-[(R)-(1,3-Dimethyl-azetidin-3-yl)-hydroxy-(4-isopropyl-phenyl)-methyl]-pyridazin-3-yl}-hexahydro-furo[2,3-c]pyrrol-4-one]
184 nM	CC(C)c1ccc([C@](O)(c2cncc(-c3noc(C4CCC(=O)NC4)n3)c2)C2(C)CN(C)C2)cc1 (some centres unmarked) [Example 481]
222 nM	CC(C)c1ccc([C@](O)(c2cncc(-n3cc(C4CCOCC4)nn3)c2)C2(C)CN(C)C2)cc1 [Example 284, (R)-(1,3-Dimethyl-azetidin-3-yl)-(4-isopropyl-phenyl)-{5-[4-(tetrahydro-pyran-4-yl)-[1,2,3]triazol-1-yl}-pyridin-3-yl]-methanol]
79.8 nM	COC1(c2nc(-c3cncc([C@@](O)(c4ccc(C(C)C)cc4)C4(C)CN(C)C4)c3)no2)CCN(C(C)=O)CC1 [Example 472]
206 nM	CC(C)c1ccc([C@](O)(c2cncc(OC3CCC(O)CC3)c2)C2(C)CN(C)C2)cc1 (stereo partly drawn) [Example 261, 4-{5-[(R)-(1,3-Dimethyl-azetidin-3-yl)-hydroxy-(4-isopropyl-phenyl)-methyl]-pyridin-3-yloxy}-cyclohexanol]
74.5 nM	CC(C)c1ccc([C@](O)(c2cncc(-c3noc(C4COC4)n3)c2)C2(C)CN(C)C2)cc1 [Example 133]
100 nM	CC(C)c1ccc(C(O)(c2cncc(C(C)C)c2)C2(C)CN(C)C2)cc1 (centres unmarked) [Example 290]
61.7 nM	Cc1nc(C(C)(O)C#Cc2cncc([C@@](O)(c3ccc(C(C)C)cc3)C3(C)CN(C)C3)c2)cs1 (some centres unmarked) [Example 36]
133 nM	Cc1cc(C(O)C#Cc2cncc([C@@](O)(c3ccc(C(C)C)cc3)C3(C)CN(C)C3)c2)nn1C (some centres unmarked) [Example 41]
214 nM	COCCC1CCN(c2cncc([C@@](O)(c3ccc(C(C)C)cc3)C3(C)CN(C)C3)c2)C1=O (some centres unmarked) [Example 220]
26.1 nM	CC(C)c1ccc([C@](O)(c2cncc(-c3noc(C4CCC(=O)N4c4ccccc4)n3)c2)C2(C)CN(C)C2)cc1 (some centres unmarked) [Example 357]
797 nM	CN1CC(C)([C@](O)(c2ccc(C(C)(C)F)cc2)c2cncc(-c3noc(C(C)(C)O)n3)c2)C1 [Example 547]
31.7 nM	CC(C)c1ccc([C@](O)(c2cncc(N(C)CCOCc3ccccc3)c2)C2(C)CN(C)C2)cc1 [Example 183]
24.8 nM	CC(C)c1ccc([C@](O)(c2cncc(-c3noc(C4CC(=O)N(c5ccccc5)C4)n3)c2)C2(C)CN(C)C2)cc1 (some centres unmarked) [Example 355]
76.8 nM	CC(=O)N1CCC(c2nc(-c3cncc([C@@](O)(c4ccc(C(C)C)c(F)c4)C4(C)CN(C)C4)c3)no2)CC1 [Example 552]
22.4 nM	CC(C)c1ccc([C@](O)(c2cncc(N3CCC(C(F)(F)F)C3)c2)C2(C)CN(C)C2)cc1 (some centres unmarked) [Example 238]
80.8 nM	CC(C)c1ccc([C@](O)(c2cncc(C#CC(C)(C)O)c2)C2(C)CN(C)C2)cc1 [Example 15, 4-{5-[(R)-(1,3-Dimethyl-azetidin-3-yl)-hydroxy-(4-isopropyl-phenyl)-methyl]-pyridin-3-yl}-2-methyl-but-3-yn-2-ol]
210 nM	COC[C@H]1CN(c2cncc([C@@](O)(c3ccc(C(C)C)cc3)C3(C)CN(C)C3)c2)CCO1 [Example 236]
20.7 nM	COc1cccc(C(C)(O)C#Cc2cncc([C@@](O)(c3ccc(C(C)C)cc3)C3(C)CN(C)C3)c2)n1 (some centres unmarked) [Example 37]
146 nM	CC1CC(=O)N(c2cc([C@@](O)(c3ccc(C(C)C)cc3)C3(C)CN(C)C3)cnn2)C1 (some centres unmarked) [Example 432]
54.3 nM	Cc1cccc(C(C)(O)C#Cc2cncc([C@@](O)(c3ccc(C(C)C)cc3)C3(F)CN(C)C3)c2)n1 (some centres unmarked) [Example 661]
